From patent US20240270762A1, “PENICILLIN-BINDING PROTEIN INHIBITORS” (priority 2021, published 2024)
In brackets after ≈: the same amount, converted by molar mass.

Tests used:
[1] = target: T1, PBP1a from Acinetobacter baumannii (ATCC 19606) (Acinetobacter baumannii, UniProt A0ABX6CK30); assay: Bocillin-FL fluorescence polarization competition binding, A. baumannii PBP1a
T1 sequence (A0ABX6CK30 1-851): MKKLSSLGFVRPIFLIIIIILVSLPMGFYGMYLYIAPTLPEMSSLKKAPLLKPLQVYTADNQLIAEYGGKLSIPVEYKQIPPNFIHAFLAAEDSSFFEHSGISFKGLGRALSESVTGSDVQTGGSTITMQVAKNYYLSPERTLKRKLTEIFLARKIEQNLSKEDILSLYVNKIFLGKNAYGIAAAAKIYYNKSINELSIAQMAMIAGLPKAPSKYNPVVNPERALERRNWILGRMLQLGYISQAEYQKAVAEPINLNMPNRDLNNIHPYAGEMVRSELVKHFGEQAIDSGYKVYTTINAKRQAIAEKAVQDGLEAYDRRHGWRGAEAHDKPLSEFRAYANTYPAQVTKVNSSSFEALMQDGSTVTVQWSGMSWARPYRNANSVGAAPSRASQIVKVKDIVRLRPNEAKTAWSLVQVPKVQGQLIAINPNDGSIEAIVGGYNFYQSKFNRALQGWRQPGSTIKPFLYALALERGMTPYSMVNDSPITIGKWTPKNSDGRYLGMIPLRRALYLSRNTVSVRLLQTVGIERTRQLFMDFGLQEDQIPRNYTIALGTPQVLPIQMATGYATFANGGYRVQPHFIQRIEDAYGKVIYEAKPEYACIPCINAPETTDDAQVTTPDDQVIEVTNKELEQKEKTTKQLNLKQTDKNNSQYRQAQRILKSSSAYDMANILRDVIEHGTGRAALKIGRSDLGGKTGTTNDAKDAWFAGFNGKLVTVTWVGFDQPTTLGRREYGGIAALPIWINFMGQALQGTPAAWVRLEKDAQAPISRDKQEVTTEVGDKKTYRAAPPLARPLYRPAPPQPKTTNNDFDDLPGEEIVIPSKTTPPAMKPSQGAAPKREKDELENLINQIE
Source text: (§1) To determine the ability of boronic acid-based test PBP inhibitors to bind Penicillin Binding Proteins (PBPs), Bocillin-FL (fluorescently-labeled penicillin V; ThermoFisher Scientific) was used in a fluorescence polarization (FP) competition binding assay to assess inhibitor binding to PBP3 from Escherichia coli (K-12), PBP3 from Pseudomonas aeruginosa (PAO1), PBP1a and PBP3 from Acinetobacter baumannii (ATCC 19606), and PBP2 from Neisseria gonorrhoeae (FA19). PBPs were cloned and purified as described previously (E. coli PBP3, King, D. T, et al., ACS Infectious Diseases 2015, 1, 175-184; P. aeruginosa PBP3, Han et. al., PNAS 2010, 107 (51), 22002-22007; A. baumannii PBPs, Penwell et. al., Antimicrob. Agents Chemother. 2015, 59 (3), 1680-1689; N. gonorrhoeae PBP2, Singh et. al., J. Biol. Chem. 2019, 294 (38), 14020-14032). To establish assay conditions for competition binding, enzyme titration/saturation binding experiments were initially performed. Bocillin-FL was prepared at 0.2 μM in a buffer comprised of 50 mM Hepes (pH 8.0), 300 mM NaCl and 10% (v/v) glycerol for reactions with E. coli, P. aeruginosa and N. gonorrhoeae PBPs, and 25 mM Tris (pH 8.0), 200 mM NaCl, 10% (v/v) glycerol and 0.005% (v/v) Tween 20 for reactions with A. baumannii PBPs. Saturation binding was performed by mixing 40 μl of PBP solutions ranging in concentrations from 0-24 μM with 40 μl of the 0.2 μM Bocillin-FL solution, in individual wells of a black 384-well microplate. FP was measured immediately upon mixing (Excitation, 490 nm; Emission, 520 nm; g-factor, 0.96), using a Cytation3 (BioTek) microplate reader and measured continuously for up to 120 minutes. The FP response stabilized after 15 minutes for P. aeruginosa and A. baumannii PBP3, 30 minutes for E. coli PBP3 and A. baumannii PBP1a, and less than 1 minute for N. gonorrhoeae PBP2. […] The competition binding assay (80 μl final volume) was validated using beta-lactams and PBPs at final concentrations of: 1.5 μM for E. coli PBP3; 0.75 μM for P. aeruginosa PBP3; 1 μM for A. baumannii PBP1a; 0.2 μM for A. baumannii PBP3; and 0.25 μM for N. gonorrhoeae PBP2. Bocillin-FL was at 0.1 μM (0.05 μM with A. baumannii PBP1a) and beta-lactam concentrations ranged from 0-1,000 μM. E. coli PBP3 was incubated with increasing concentrations of ampicillin in a black 384-well microplate (Corning) for 30 minutes. P. aeruginosa PBP3 was incubated for 15 minutes with aztreonam, whereas A. baumannii PBP1a and PBP3 were incubated for 15 minutes with meropenem, and then Bocillin-FL was added followed immediately by the FP measurement for up to 60 minutes. […] The beta-lactam potency was reported as the concentration of beta-lactam required to reduce the amount of PBP bound-Bocillin-FL by 50% (EC50). […] The EC50 of aztreonam was determined to be <0.5 μM for P. aeruginosa PBP3. […] Binding assays for boronic acid PBP inhibitors were performed in an identical fashion for the respective PBPs.

A. baumannii CDC-0036 = assay: microbe, parasite or virus in culture; format: cell-based; conditions: Acinetobacter baumannii, CDC0036, read-out: MIC, A. baumannii CDC-0036
P. aeruginosa CDC-0095 = assay: microbe, parasite or virus in culture; format: cell-based; conditions: Pseudomonas aeruginosa, CDC0095, read-out: Minimum inhibitory concentration, P. aeruginosa CDC-0095
[2] = test system: B. humptydooensis ATCC BAA-2767; assay: microbe, parasite or virus in culture; format: cell-based; conditions: Burkholderia humptydooensis, ATCCBAA2767, read-out: Minimum inhibitory concentration (MIC), B. humptydooensis ATCC BAA-2767
P. aeruginosa CDC-0110 = assay: microbe, parasite or virus in culture; format: cell-based; conditions: Pseudomonas aeruginosa, CDC0110, read-out: Minimum inhibitory concentration, P. aeruginosa CDC-0110
[3] = target: T2, PBP3 from Acinetobacter baumannii (ATCC 19606) (Acinetobacter baumannii, UniProt A0ABX6CK25); assay: Bocillin-FL fluorescence polarization competition binding, A. baumannii PBP3; conditions: fluorescence polarization competition binding assay using Bocillin-FL; read-out: A. baumannii PBP3 Potency
T2 sequence (A0ABX6CK25 64-610): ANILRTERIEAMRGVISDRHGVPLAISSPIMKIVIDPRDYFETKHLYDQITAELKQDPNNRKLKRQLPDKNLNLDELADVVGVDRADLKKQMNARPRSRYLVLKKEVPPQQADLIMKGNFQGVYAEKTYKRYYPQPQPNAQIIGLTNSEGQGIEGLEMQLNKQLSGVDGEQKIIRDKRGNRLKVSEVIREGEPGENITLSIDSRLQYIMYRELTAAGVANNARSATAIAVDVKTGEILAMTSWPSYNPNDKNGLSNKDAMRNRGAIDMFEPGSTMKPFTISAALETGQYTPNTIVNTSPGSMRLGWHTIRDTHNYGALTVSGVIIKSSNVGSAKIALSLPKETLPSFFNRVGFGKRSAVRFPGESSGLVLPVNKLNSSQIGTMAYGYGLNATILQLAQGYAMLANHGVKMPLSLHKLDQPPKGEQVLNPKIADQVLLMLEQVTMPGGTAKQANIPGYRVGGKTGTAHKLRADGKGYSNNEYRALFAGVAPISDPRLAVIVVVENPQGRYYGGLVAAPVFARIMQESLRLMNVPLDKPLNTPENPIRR
Source text: as §1

P. aeruginosa CDC-0090 = assay: microbe, parasite or virus in culture; format: cell-based; conditions: Pseudomonas aeruginosa, CDC0090, read-out: Minimum inhibitory concentration, P. aeruginosa CDC-0090
A. baumannii 1258916 = assay: microbe, parasite or virus in culture; format: cell-based, Acinetobacter baumannii; conditions: Acinetobacter baumannii, 1258916, read-out: MIC, A. baumannii 1258916
A. baumannii ATCC 17978 = assay: microbe, parasite or virus in culture; format: cell-based; conditions: Acinetobacter baumannii, ATCC17978, read-out: MIC, A. baumannii ATCC 17978
P. aeruginosa CDC-0054 = assay: microbe, parasite or virus in culture; format: cell-based; conditions: Pseudomonas aeruginosa, CDC0054, read-out: Minimum inhibitory concentration, P. aeruginosa CDC-0054
A. baumannii CDC-0033 = assay: microbe, parasite or virus in culture; format: cell-based; conditions: Acinetobacter baumannii, CDC0033, read-out: MIC, A. baumannii CDC-0033
A. baumannii CDC-0083 = assay: microbe, parasite or virus in culture; format: cell-based; conditions: Acinetobacter baumannii, CDC0083, read-out: MIC, A. baumannii CDC-0083
A. baumannii CDC-0045 = assay: microbe, parasite or virus in culture; format: cell-based; conditions: Acinetobacter baumannii, CDC0045, read-out: MIC, A. baumannii CDC-0045
P. aeruginosa ATCC 35151 = assay: microbe, parasite or virus in culture; format: cell-based; conditions: Pseudomonas aeruginosa, ATCC35151, read-out: Minimum inhibitory concentration, P. aeruginosa ATCC 35151
[4] = test system: P. aeruginosa (ΔmexAB-oprM); assay: Broth microdilution MIC in iron-depleted CAMHB (IDM); format: cell-based; conditions: Pseudomonas aeruginosa, read-out: Minimum inhibitory concentration, P. aeruginosa ΔmexAB-oprM
[5] = test system: B. thailandensis ATCC 700388; assay: microbe, parasite or virus in culture; format: cell-based; conditions: Burkholderia thailandensis, ATCC700388, read-out: Minimum inhibitory concentration (MIC), B. thailandensis ATCC 700388
P. aeruginosa ATCC 27853 = assay: microbe, parasite or virus in culture; format: cell-based; conditions: Pseudomonas aeruginosa, ATCC27853, read-out: Minimum inhibitory concentration, P. aeruginosa ATCC 27853
A. baumannii ATCC 19606 = assay: microbe, parasite or virus in culture; format: cell-based; conditions: Acinetobacter baumannii, ATCC19606, read-out: MIC, A. baumannii ATCC 19606

| SMILES | EC50 [1] [nM] | MIC (A. baumannii CDC-0036) [µg/mL] | MIC (P. aeruginosa CDC-0095) [µg/mL] | MIC [2] [µg/mL] | MIC (P. aeruginosa CDC-0110) [µg/mL] | IC50 [3] [µM] | MIC (P. aeruginosa CDC-0090) [µg/mL] | MIC (A. baumannii 1258916) [µg/mL] | MIC (A. baumannii ATCC 17978) [µg/mL] | MIC (P. aeruginosa CDC-0054) [µg/mL] | MIC (A. baumannii CDC-0033) [µg/mL] | MIC (A. baumannii CDC-0083) [µg/mL] | MIC (A. baumannii CDC-0045) [µg/mL] | MIC (P. aeruginosa ATCC 35151) [µg/mL] | MIC [4] [µg/mL] | MIC [5] [µg/mL] | MIC (P. aeruginosa ATCC 27853) [µg/mL] | MIC (A. baumannii ATCC 19606) [µg/mL] |
| --- | --- | --- | --- | --- | --- | --- | --- | --- | --- | --- | --- | --- | --- | --- | --- | --- | --- | --- |
| C[C@@H](O)[C@H]1C(=O)N2C(C(=O)O)=C(S[C@@H]3CN[C@H](C(=O)N(C)C)C3)[C@H](C)[C@H]12 [meropenem, reference compound] | < 500 | – | – | – | – | – | – | – | – | – | – | – | – | – | – | – | – | – |
| O=C(O)c1c(F)ccc2c1OB(O)[C@@H](NC(=O)[C@@H](NC(=O)N1CCN(Cc3ccc(O)c(O)c3Cl)C(=O)C1=O)c1ccc(P(=O)(O)O)cc1)C2 (single isomer, unassigned) [Example 161] | – | > 128 | < 1 | < 1 | < 1 | < 10 | > 128 | > 128 | < 1 | < 1 | 8 to 16 (≈ 10.9 to 21.8 µM) | 8 to 16 (≈ 10.9 to 21.8 µM) | > 128 | < 1 | 2 to 4 (≈ 2.72 to 5.44 µM) | < 1 | 2 to 4 (≈ 2.72 to 5.44 µM) | < 1 |
